The text below walks through data of article PMC7308271, “Discovery of a new class of orthosteric antagonists with nanomolar potency at extrasynaptic GABAA receptors” (Scientific Reports, 2020).

The structures appear in SMILES notation.

Data set [1] concerns the target T1, human α4β1δ receptors in δ-HEK cells (Homo sapiens, UniProt P18505+P48169).
T1 construct: expressed in transfected cells; host or cells: δ-HEK (HEK293 Flp-In stably expressing human δ), transiently transfected with α4 and β1 1:1
Kind of data set: Whole-cell patch-clamp electrophysiology, kinetic studies of GABA activation after 018 pre-application. It counts as cell-based. On the procedure: δ-HEK cells transiently expressing human α4β1δ receptors were seeded in 35 mm Petri dishes the day before experiment and used for recordings in a similar was as previously reported. On the day of experiment the dishes were transferred to the stage of an Axiovert 10 microscope (Zeiss, Germany), and the culture medium was exchanged for artificial balanced salt solution (ABBS) at room temperature (20−24 °C). The ABSS solution contained the following (in mM): NaCl 140, KCl 3.5, Na2HPO4 1.25, MgSO4 2, CaCl2 2, glucose 10, and HEPES 10; pH 7.35. The cells were viewed at 200× magnification, and cells containing green fluorescent protein were visualized with UV light from an HBO 50 lamp (Zeiss, Germany). The cells were approached with micropipettes of 1.2−3.3 MΩ resistance manufactured from 1.5 mm OD glass (World Precision Instruments, Sarasota, Florida) on a microelectrode puller, model PP-830 (Narishige, Tokyo, Japan). The intrapipette solution contained the following (in mM): KCl 140, MgCl2 1, CaCl2 1, EGTA 10, MgATP 2, and HEPES 10; pH 7.3. Standard patch-clamp techniques in voltage clamp mode[44] were used to record from cells in the whole-cell configuration using an EPC-9 amplifier (HEKA, Lambrecht, Germany). A clamping potential of −60 mV was used, and series resistance was 80% compensated. Whole-cell currents were recorded and subsequently analyzed using Pulse and PulseFit software (HEKA, Lambrecht, Germany).
ABSS solution containing the compounds were applied using two VC3–8xP pressurized application systems feeding into a sixteen-barreled perfusion pipette (ALA Scientific Instruments Inc., Farmingdale New York, USA) ending approximately 100 μm from the recorded cell. Between the compound applications, compound-free ABSS was applied from one of the barrels in order to quickly remove the compounds from the cell. […] The cells were left to recover for 1 min before the next application.
Current relaxations were fitted to a single or biexponential equation using a Simplex optimization algorithm (PulseFit; HEKA, Lambrecht, Germany). I(t)=I0+I1exp−t/τ1+I2exp−t/τ2
With I denoting the currents at a time t and τ1 and τ2 the time constants. All curve-fitting results were carefully inspected visually. In some cases, the current relaxations were fitted to both a mono- and a biexponential function and an F-test was applied to the residual sum of squares to determine the appropriateness of using a second component: F=(SSA−SSB)dfB/SSB(dfA−dfB)=(RMSA2−RMSB2)dfB/RMSB2(dfA−dfB) where SS and RMS are the sum of squares and root mean square deviation between fit and data, respectively. A and B refer to the single and biexponential fit, respectively. df represents the degree of freedom for each fit. Time constants were given as medians followed by the 25–75% percentile in square brackets.
(In general: In patch-clamp work, channel activity is measured electrically.)

The subject of data set [2] is MDR1 (P-glycoprotein), human. The data set is described as follows: Bidirectional membrane permeability in MDR1-MDCK cells. It counts as in vitro ADME, canine. Particulars: dog, triplicate, read-out: basal to apical permeability. As to the method: (§1) Bidirectional permeability was tested for 018 and 2027 in the Madin-Darby canine kidney (MDCK) cell line expressing human multidrug resistance protein (MDR1, P-glycoprotein) (referred to as MDR1-MDCK cells) as described previously. To calculate efflux ratio the permeability in the basal-to-apical direction was divided by the permeability in the apical-to-basal direction. The obtained data is from triplicate measurements.

The test system of a further data set is MDR1 (P-glycoprotein). The data set is described as above. It counts as in vitro ADME, canine. To be noted: dog, both before and after. As to the method: as §1
Data set [3] concerns the target [^3H]muscimol binding (GABAΑ receptors) in rat brain cortical homogenate. Kind of data set: [3H]muscimol radioligand binding in rat cortical homogenate. To be noted: for Ki: 5 nM [^3H]muscimol, n = 4; for pKi ± SEM: [^3H]muscimol. On the procedure: The binding studies were performed using rat brain homogenate prepared from the cortex of adult Sprague-Dawley male rats (250–350 g) obtained from commercial breeders (Janvier Laboratories, Le Genest-Saint-Isle, France), housed and cared for according to the Danish legislation regulating animal experiments and the European Communities Council Directive (2010/63/EU). Homogenate preparation was performed as described earlier. On the day of assay, membranes stored at −20 °C was quickly thawed followed by addition of 40 volumes of ice-cold binding buffer (50 mM TRIS-HCl buffer; pH 7.4) and homogenization using and UltraTurrax homogenizer before being centrifuged at 48,000 ×g for 10 minutes at 4 °C. This washing procedure was repeated 4 times before the final pellet was suspended in the binding buffer to final concentration of approximately 0.5 mg/mL protein.
The radioligand binding assay was performed using [^3H]muscimol in a 96-well format. [^3H]muscimol (5 nM) was incubated with 75 μg/well protein with or without test compound or control at 0 °C for 1 hour in a total volume of 200 μL binding buffer in triplicates. […] After incubation, the binding reaction was terminated by rapid filtration through GF/C unifilters (PerkinElmer) with the use of a 96-well Packard FilterMate cell harvester (PerkinElmer), followed by 3 times washing in 250 μL ice-cold binding buffer. After drying at 65 °C, microscintillation fluid was added to the dried filters and the radioactivity bound to the filter was quantified in a Packard TopCounter microplate scintillation counter. The obtained binding data was converted into specific binding (% of control) for each data point and fitted to the one-site competition model by […] (GraphPad Prism, version 8.2.1). The fitted IC50 values were converted into Ki values by means of the Cheng-Prusoff equation[46]. Data are from three independent experiments, performed with three technical replicates and Ki values are given as pKi ± SEM.

[4] abbreviates: 100 μM GABA, 3 nM 018, biexponential fit.
[5] abbreviates: 100 μM GABA, 10 nM 018, biexponential fit.
Setting [6] is: 100 μM GABA, 30 nM 018, biexponential fit.
[7] abbreviates: […] GABA, 10 nM 018, biexponential fit.
[8] abbreviates: […] GABA, 30 nM 018, biexponential fit, n = 5.

T1 sequence (P48169 36-554): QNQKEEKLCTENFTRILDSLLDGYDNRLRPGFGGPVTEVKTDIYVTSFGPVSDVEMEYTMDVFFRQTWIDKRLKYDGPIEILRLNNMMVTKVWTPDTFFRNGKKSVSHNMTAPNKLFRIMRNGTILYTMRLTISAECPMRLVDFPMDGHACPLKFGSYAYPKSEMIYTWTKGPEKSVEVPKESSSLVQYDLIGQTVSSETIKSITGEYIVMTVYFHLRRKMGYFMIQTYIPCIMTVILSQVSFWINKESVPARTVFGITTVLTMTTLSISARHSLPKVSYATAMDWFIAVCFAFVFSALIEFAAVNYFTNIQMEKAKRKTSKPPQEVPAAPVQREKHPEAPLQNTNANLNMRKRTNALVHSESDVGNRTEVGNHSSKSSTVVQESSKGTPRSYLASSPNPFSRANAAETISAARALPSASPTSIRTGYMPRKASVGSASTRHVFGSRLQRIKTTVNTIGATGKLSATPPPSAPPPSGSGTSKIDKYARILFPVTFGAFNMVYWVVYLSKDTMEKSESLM
T1 sequence (P18505 26-474): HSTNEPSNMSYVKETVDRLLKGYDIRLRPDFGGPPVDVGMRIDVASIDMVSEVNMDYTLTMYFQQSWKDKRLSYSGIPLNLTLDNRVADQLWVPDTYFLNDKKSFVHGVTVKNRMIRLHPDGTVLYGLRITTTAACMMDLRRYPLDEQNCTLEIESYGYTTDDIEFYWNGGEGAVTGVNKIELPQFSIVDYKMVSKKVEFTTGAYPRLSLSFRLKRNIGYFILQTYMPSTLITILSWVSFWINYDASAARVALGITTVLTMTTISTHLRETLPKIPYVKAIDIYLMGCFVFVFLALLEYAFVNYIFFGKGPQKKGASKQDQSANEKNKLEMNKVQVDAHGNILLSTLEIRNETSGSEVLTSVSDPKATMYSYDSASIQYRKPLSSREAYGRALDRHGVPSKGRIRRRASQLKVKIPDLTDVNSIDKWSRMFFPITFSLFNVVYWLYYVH
T1 sequence (O14764 25-452 partner): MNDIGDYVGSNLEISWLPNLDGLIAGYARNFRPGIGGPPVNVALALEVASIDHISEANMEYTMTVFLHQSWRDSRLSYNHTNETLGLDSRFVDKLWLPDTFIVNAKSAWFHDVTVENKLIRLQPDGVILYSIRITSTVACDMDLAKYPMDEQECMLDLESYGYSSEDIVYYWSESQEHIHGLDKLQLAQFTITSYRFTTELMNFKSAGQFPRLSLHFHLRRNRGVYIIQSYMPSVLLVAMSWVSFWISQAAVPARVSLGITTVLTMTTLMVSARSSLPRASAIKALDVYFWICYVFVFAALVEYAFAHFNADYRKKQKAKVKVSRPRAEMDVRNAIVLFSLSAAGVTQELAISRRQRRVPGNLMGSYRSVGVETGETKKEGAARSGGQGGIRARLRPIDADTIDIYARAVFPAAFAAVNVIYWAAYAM

Consider `NCCCC(=O)O` [GABA], for which the “t1 (ms), activation time constant” value in data set [1] (100 μM GABA alone (0 nM 018), monoexponential fit, median) came out at 35.0 ms. In addition, the “τ (ms), activation time constant” value in data set [1] ([…] GABA alone (0 nM 018), monoexponential fit, median [25–75% quartiles]) is 174 [148;186]^a ms.

As to `O=C(Nc1cccc(C(=O)N2CCC3(CCNCC3)CC2)c1)c1cccs1` [compound 018, N-(3-(3,9-diazaspiro[5.5]undecane-3-carbonyl)phenyl)thiophene-2-carboxamide], in data set [2], the Papp B→A came out at 0.79 ×10⁻⁶ cm/s. The recovery in the data set with MDR1 (P-glycoprotein) was > 85%. The affinity in data set [3] corresponds to a Ki of 20 nM. Moreover, the “pKi ± SEM” value in data set [3] stood at 7.71 ± 0.06. Besides, the “t1” value in data set [1] (100 μM GABA, 0.1 nM 018, monoexponential fit) was determined as 37.1 ms; in data set [1] (setting [4]) it was 29.6 ms; in data set [1] (setting [5]) it was 41.4 ms; in data set [1] (setting [6]), 34.0 ms. Also, the “%A1” value was 81.5% in data set [1] (100 μM GABA, 3 nM 018); 33.9% in data set [1] (100 μM GABA, 10 nM 018); 7.5% in data set [1] (100 μM GABA, 30 nM 018); 83.8 — % in data set [1] ([…] GABA, 3 nM 018, fast component share of total current); 39.6% in data set [1] ([…] GABA, 10 nM 018); 8.3 — % in data set [1] ([…] GABA, 30 nM 018). Besides, the “t2” value is 1070 ms in data set [1] (setting [4]), 2170 ms in data set [1] (setting [5]) and 3685 ms in data set [1] (setting [6]). The “τ1 (ms)” value is 119 [101;167]^a ms in data set [1] ([…] GABA, 0.1 nM 018, monoexponential fit); 147 [115;183] ms in data set [1] ([…] GABA, 3 nM 018, biexponential fit, n = 7); 123 [73.3;273] ms in data set [1] ([…] GABA, 3 nM 018, monoexponential fit, n = 3); 107 [57.5;180] ms in data set [1] (setting [7]); 68.0 [56.3;106] — ms in data set [1] (setting [8]). Further, the “τ2 (ms)” value in data set [1] ([…] GABA, 3 nM 018, biexponential fit) is 1090 [960;2180] — ms; in data set [1] (setting [7]), 2170 [1970;3010] ms; in data set [1] (setting [8]) it was 3780 [3160;4710] ms; in data set [1] ([…] GABA, 30 nM 018, monoexponential fit, n = 3), 4270 [4140;4920] ms; in data set [1] ([…] GABA, 1000 nM 018, monoexponential fit), 3780 [3330;5350]^a ms. Besides, the “τ1” value in data set [1] (setting [8]) worked out at 68.0 ms.

`CC(=O)Nc1cccc(C(=O)N2CCC3(CCNCC3)CC2)c1` [compound 2027, N-(3-(3,9-diazaspiro[5.5]undecane-3-carbonyl)phenyl)acetamide]: in data set [2], the Papp B→A is 0.67 ×10⁻⁶ cm/s. Besides, the recovery in the data set with MDR1 (P-glycoprotein) was > 85%. For the same molecule, in data set [3], the inhibition constant (Ki) (commonly a measure of affinity in units of concentration, obtained from inhibition or displacement) turned out to be 560 nM and the “pKi ± SEM” value is 6.25 ± 0.06.
